In brackets after ≈: the same amount, converted by molar mass. Several values for one entry are separate records, joined by “and”; a condition that tells them apart may be missing. Identical values can stand only once. Like-named read-outs stand apart in the source and are kept apart here. Blank lines part the entries; values can stand above or below the compound they belong to.
Key:
[1] = Viscosity of F127 and SBE-β-CD solutions, Vibro Viscometer; assay type: physicochemical; settings: 37 °C
Protocol: The viscosity of F127 and SBE-β-CD solutions at concentrations used for the permeability experiments (1.0 w/v%, 2.0 w/v%, and 3.0 w/v%) was measured with the help of SV series Vibro Viscometer (A&D Company Ltd., Tokyo, Japan) with a high accuracy of 1% (standard deviation).
In turn, with SBE-β-CD in the donor solution, the Pappcalc values are somewhat lower with RC and higher with PDS membranes than the experimental Papp values. These findings allow the proposal of additional mechanisms that influence permeability, going beyond the model approach which primarily relied on solubility for quantitatively predicting permeability. The underestimation of the permeability through the PDS membrane with SBE-β-CD can probably be attributed to the specific interaction of anionic cyclodextrin with PDS, as it was underlined above. In addition, as it was reported in [57], decreased diffusivity can be attributed to the increased viscosity of the donor solution upon the acceleration of the excipient concentration. […] Fischer et al. proposed that just a change in the viscosity of the aqueous donor compartment might be the reason of the decreased permeability of carboxyfluorescein in the non-ionic surfactant poloxamer 188. To support the obtained results, the dynamic viscosity […] of the dissolution medium was measured at the experimental temperature of 37 °C and listed in Table S4. As expected, the viscosity was increased both with F127 and SBE-β-CD in solution.

[2] = In vitro permeability, Franz diffusion cell, regenerated cellulose membrane; assay type: in vitro ADME; settings: 37 °C; for C0free (free CBZ concentration in the donor solution, C0free=C0·ffree): RC membrane experiment; for Papp at 5 h: pH 6.8, RC membrane
Protocol: (§1) The apparent permeability coefficients were measured at 37 °C with the help of a vertical-type Franz diffusion cell (PermeGear, Inc., Hellertown, PA, USA). The experimental setup was the same as it was described in our previous study, where the excess amount of the investigated substance was placed in glass cups with ground-in lids. The required volume of buffer pH 6.8 without and with a predetermined concentration of the excipient (F127 or SBE-β-CD in the present study) was added, and the suspension was mixed overnight and filtered to obtain a clear solution. The concentration of this solution was determined and used for the further calculation of the permeability coefficient. […] The membrane was mounted between the donor and receptor chambers of the Franz cell. The effective surface area of the membrane was 0.785 cm^2. Each experiment lasted 5 h. The donor solution was permanently mixing with a magnetic stirrer at a constant rate. The aliquots of the receptor solution (0.5 mL) were withdrawn every 30 min and promptly replaced with the same volume of the fresh buffer.
(§2) The apparent permeability coefficients were taken as the average values of no less than three replicas. […]
(§3) The authors underlined that when different excipients, such as cyclodextrins or micelle-forming polymers, are used, it is necessary to obtain “true” permeability values by a correction of permeability coefficients for the free drug concentration. In this study, the free drug concentration in the presence of F127 and SBE-β-CD was assessed indirectly through the equilibrium solubility experiments at all the excipient concentrations (Table 2).

[3] = cited from earlier work
[4] = Equilibrium solubility of CBZ, shake-flask method, HPLC; assay type: physicochemical; settings: phosphate buffer, aqueous buffer, thermodynamic from solid; pure buffer pH 6.8; 37.0±0.1 °C
Protocol: The experimental temperature of 37 °C corresponded to the standard temperature of a healthy human. […] The vials were continuously shaken in an air thermostat to achieve the equilibrium. After this, the suspensions were settled during no less than 6 h to avoid supersaturation [33]. […] The experimental results are presented as an average of at least three replicated experiments.
The samples of the solutions were analyzed via HPLC using the Shimadzu Prominence model LC-20 AD, equipped with a PDA detector and a C-18 column Luna® (150 mm × 4.6 mm i.d., 5 μm particle size, and 100 Å pore size) (Albert-Hahn-Str. 6-10, Duisburg, Germany). The column temperature was 40 °C. Eluent acetonitrile:water at a ratio of 40:60 v/v was used. An isocratic regime at a flow rate of 1 mL·min^−1 was applied. The injection volume was 20 μL.

[5] = design: method as in PMID 21415539; settings: water to 1-octanol; pH 7.4 of the aqueous phase; cited from earlier work
[6] = In vitro permeability, Franz diffusion cell, polydimethylsiloxane–polycarbonate membrane; assay type: in vitro ADME; settings: 37 °C; for C0free (free CBZ concentration in the donor solution, C0free=C0·ffree): PDS membrane experiment; for Papp at 5 h: pH 6.8, PDS membrane
Protocol: as §1, §2, §3

[7] = Cyclodextrin (SBE-β-CD)/buffer apparent partition coefficient of CBZ; assay type: physicochemical; settings: buffer pH 6.8, 37 °C
Protocol: (§4) Additionally, for the sake of the reliable comparison of the partition within the micellar and cyclodextrin systems, the concentrations of the excipient (F127 or SBE-β-CD) on the X-axis were expressed in kg∙L^−1. From the results of the partition coefficients determinations, the thermodynamics of solubilization by F127 and SBE-β-CD was disclosed by the excess free Gibbs energy ( ΔGS37°C ) evaluation, using the equation:(12) ΔGS37°C=−RT·lnKexcipient/buf
(§5) In the case of cyclodextrins, the nonspecific interaction between the solute and the cavity of cyclodextrin takes place, and the solubilization process may be attributed to the partition of solutes from the aqueous buffer into the cyclodextrin cavity. In this work, the partition from the micellar pseudo phase (F127) to the aqueous buffer pH 6.8, as well as from SBE-β-CD to the buffer was studied using the plots of the linear dependences (Figure S4), plotted according to Equations (10) and (11). The calculations were conducted in two variants.

[8] = Stability constant of CBZ/SBE-β-CD complex (Kc) from phase solubility diagram; assay type: physicochemical; settings: buffer pH 6.8, 37 °C
[9] = CBZ/F127 association constant (Ka) from phase solubility diagram; assay type: physicochemical; settings: buffer pH 6.8, 37 °C
Text: To this end, in order to assess the concentration of F127 in the micellar form, the difference between the total F127 (CF127) concentration and the CMC was used.
The CMC value of F127 (Section 3.1) was used to calculate F127 micellar concentrations as the differences between the total CF127 and the CMC.

[10] = design: method as in PMID 19403275; settings: 1.33 mmol·L^−1 (1%) F127 solution; 37 °C; cited from earlier work
[11] = Micelle (F127)/buffer apparent partition coefficient of CBZ; assay type: physicochemical; settings: buffer pH 6.8, 37 °C
Protocol: as §4, §5

[12] = logP, partition of CBZ from water to 1-octanol; assay type: physicochemical; settings: 1-octanol/water, pH 7.4; after conversion from the molar units to the mass units
[13] = F127 1.33 mmol·L^−1, buffer pH 6.8, read-out: Papp (apparent permeability coefficient)
[14] = F127 1.83 mmol·L^−1, buffer pH 6.8, read-out: Papp (apparent permeability coefficient)
[15] = F127 2.30 mmol·L^−1, buffer pH 6.8, read-out: Papp (apparent permeability coefficient)
[16] = SBE-β-CD 6.89 mmol·L^−1, buffer pH 6.8, read-out: Papp (apparent permeability coefficient)
[17] = SBE-β-CD 13.78 mmol·L^−1, buffer pH 6.8, read-out: Papp (apparent permeability coefficient)
[18] = SBE-β-CD 20.67 mmol·L^−1, buffer pH 6.8, read-out: Papp (apparent permeability coefficient)
[19] = pure buffer pH 6.8 (0 mmol·L^−1 excipient), read-out: Pabs (absolute permeability coefficient, Pabs=J/C0free)
[20] = pure buffer pH 6.8 (0 mmol·L^−1 excipient), read-out: Papp (apparent permeability coefficient)
[21] = excipient concentration expressed in kg∙L^−1
[22] = excipient concentration expressed in molarity
[23] = expressed per mass of excipient

Viscosity ([1]; SBE-β-CD 6.89 mmol·L-1 donor solution): 0.72 mPa·s
Viscosity ([1]; SBE-β-CD 13.78 mmol·L-1 donor solution): 0.75 mPa·s
Viscosity ([1]; SBE-β-CD 20.67 mmol·L-1 donor solution): 0.8 mPa·s
Compound: sulfobutylether-β-cyclodextrin [SBE-β-CD]

C0free (free CBZ concentration in the donor solution, C0free=C0·ffree) ([2]; F127 1.33 mmol·L^−1): 473 µM
C0free (free CBZ concentration in the donor solution, C0free=C0·ffree) ([2]; F127 1.83 mmol·L^−1): 377 µM
C0free (free CBZ concentration in the donor solution, C0free=C0·ffree) ([2]; F127 2.30 mmol·L^−1): 473 µM
C0free (free CBZ concentration in the donor solution, C0free=C0·ffree) ([2]; SBE-β-CD 6.89 mmol·L^−1): 446 µM
C0free (free CBZ concentration in the donor solution, C0free=C0·ffree) ([2]; SBE-β-CD 13.78 mmol·L^−1): 388 µM
C0free (free CBZ concentration in the donor solution, C0free=C0·ffree) ([2]; SBE-β-CD 20.67 mmol·L^−1): 559 µM
Papp at 5 h [2, 13]: 32.2 ×10⁻⁶ cm/s
Papp at 5 h [2, 14]: 26.6 ×10⁻⁶ cm/s
Papp at 5 h [2, 15]: 20.3 ×10⁻⁶ cm/s
Papp at 5 h [2, 16]: 20.5 ×10⁻⁶ cm/s
Papp at 5 h [2, 17]: 13.4 ×10⁻⁶ cm/s
Papp at 5 h [2, 18]: 12.4 ×10⁻⁶ cm/s
Papp at 5 h [2, 19]: 55.5 ×10⁻⁶ cm/s
Papp at 5 h [2, 20]: 55.5 ×10⁻⁶ cm/s
solubility thermodynamic [4]: 830 µM (≈ 196 µg/mL)
C0free (free CBZ concentration in the donor solution, C0free=C0·ffree) ([6]; F127 1.33 mmol·L^−1): 464 µM
C0free (free CBZ concentration in the donor solution, C0free=C0·ffree) ([6]; F127 1.83 mmol·L^−1): 378 µM
C0free (free CBZ concentration in the donor solution, C0free=C0·ffree) ([6]; F127 2.30 mmol·L^−1): 312 µM
C0free (free CBZ concentration in the donor solution, C0free=C0·ffree) ([6]; SBE-β-CD 6.89 mmol·L^−1): 440 µM
C0free (free CBZ concentration in the donor solution, C0free=C0·ffree) ([6]; SBE-β-CD 13.78 mmol·L^−1): 514 µM
C0free (free CBZ concentration in the donor solution, C0free=C0·ffree) ([6]; SBE-β-CD 20.67 mmol·L^−1): 500 µM
Papp at 5 h [6, 13]: 0.286 ×10⁻⁶ cm/s
Papp at 5 h [6, 14]: 0.253 ×10⁻⁶ cm/s
Papp at 5 h [6, 15]: 0.214 ×10⁻⁶ cm/s
Papp at 5 h [6, 16]: 0.127 ×10⁻⁶ cm/s
Papp at 5 h [6, 17]: 0.0796 ×10⁻⁶ cm/s
Papp at 5 h [6, 18]: 0.0565 ×10⁻⁶ cm/s
Papp at 5 h [6, 19]: 0.567 ×10⁻⁶ cm/s
Papp at 5 h [6, 20]: 0.567 ×10⁻⁶ cm/s
Partition coefficient KSBE-β-CD/buf [7, 21]: 205.11 (±0.51)
Partition coefficient KSBE-β-CD/buf [7, 22]: 297.67 (±0.75)
Apparent stability constant of CBZ/SBE-β-CD complex (Kc) [8]: 395.9 (±15.8) M^−1 and 395.9 M^−1
Apparent stability constant of CBZ/SBE-β-CD complex (Kc) [8, 23]: 247.5 (±5.23) L∙kg^−1
CBZ/F127 micellar association constant (Ka) [9]: 2374.2 (±118.7) M^−1
CBZ/F127 micellar association constant (Ka) [9, 23]: 65.5 (±3.27) L∙kg^−1
Partition coefficient KF127/buf [11, 21]: 58.54 (±0.86)
Partition coefficient KF127/buf [11, 22]: 737.63 (±10.90)
logP [12]: 3.47
Compound: NC(=O)N1c2ccccc2C=Cc2ccccc21 [CBZ, carbamazepine]
Stability constant of CBZ with SBE-β-CD ([3]; unbuffered double distilled water, 30 °C, ref 48 Jain et al.): 498.04 M⁻¹
Stability constant of CBZ with SBE-β-CD ([3]; undefined pH and temperature, ref 49 Smith et al.): 1035 M⁻¹
P (partition coefficient water/1-octanol) [5]: 380.19
Solubility of CBZ [10]: 1430 µM
